In ChEMBL document CHEMBL2413072, “Synthesis and in vitro anticancer studies of novel C-2 arylidene congeners of lantadenes” (2013):

How the values were obtained:
Assay type in all cases: functional
SW-620 [1] = experiment: Growth inhibition of human SW620 cells by sulforhodamine B assay
HT-29 = experiment: Growth inhibition of human HT-29 cells by sulforhodamine B assay
NCI-H322M [2] = experiment: Growth inhibition of human NCI-H322M cells by sulforhodamine B assay
MDA-MB-435 [3] = experiment: Growth inhibition of human MDA-MB-435 cells assessed as cell growth at 10^-8 M by sulforhodamine B assay; conditions: read-out: Activity
M14 = experiment: Growth inhibition of human M14 cells assessed as cell growth at 10^-8 M by sulforhodamine B assay; conditions: read-out: Activity
LOX IMVI [4] = experiment: Growth inhibition of human LOXIMVI cells assessed as cell growth at 10^-8 M by sulforhodamine B assay; conditions: read-out: Activity
KM12 = experiment: Growth inhibition of human KM12 cells assessed as cell growth at 10^-8 M by sulforhodamine B assay; conditions: read-out: Activity
HOP-92 = experiment: Growth inhibition of human HOP92 cells assessed as cell growth at 10^-8 M by sulforhodamine B assay; conditions: read-out: Activity
MDA-MB-468 [5] = experiment: Growth inhibition of human MDA-MB-468 cells by sulforhodamine B assay
BT-549 [6] = experiment: Growth inhibition of human BT549 cells by sulforhodamine B assay
CAKI-1 = experiment: Growth inhibition of human CAKI-1 cells by sulforhodamine B assay
ACHN = experiment: Growth inhibition of human ACHN cells by sulforhodamine B assay
786-0 = experiment: Growth inhibition of human 786-0 cells by sulforhodamine B assay
[7] = Growth inhibition of human NCI-ADR-RES cells by sulforhodamine B assay
OVCAR-5 = experiment: Growth inhibition of human OVCAR5 cells by sulforhodamine B assay
UO-31 = experiment: Growth inhibition of human UO31 cells assessed as cell growth at 10^-4 M by sulforhodamine B assay; conditions: read-out: Activity
OVCAR-8 = experiment: Growth inhibition of human OVCAR8 cells assessed as cell growth at 10^-4 M by sulforhodamine B assay; conditions: read-out: Activity
Malme-3M = experiment: Growth inhibition of human MALME-3M cells assessed as cell growth at 10^-4 M by sulforhodamine B assay; conditions: read-out: Activity
LOX IMVI [8] = experiment: Growth inhibition of human LOXIMVI cells assessed as cell growth at 10^-4 M by sulforhodamine B assay; conditions: read-out: Activity
SF-539 = experiment: Growth inhibition of human SF539 cells assessed as cell growth at 10^-4 M by sulforhodamine B assay; conditions: read-out: Activity
SW-620 [9] = experiment: Growth inhibition of human SW620 cells assessed as cell growth at 10^-4 M by sulforhodamine B assay; conditions: read-out: Activity
COLO 205 = experiment: Growth inhibition of human COLO205 cells assessed as cell growth at 10^-4 M by sulforhodamine B assay; conditions: read-out: Activity
[10] = Growth inhibition of human NCI-ADR-RES cells assessed as cell growth at 10^-6 M by sulforhodamine B assay; conditions: read-out: Activity
OVCAR-3 = experiment: Growth inhibition of human OVCAR3 cells assessed as cell growth at 10^-6 M by sulforhodamine B assay; conditions: read-out: Activity
SK-MEL-28 = experiment: Growth inhibition of human SK-MEL-28 cells assessed as cell growth at 10^-6 M by sulforhodamine B assay; conditions: read-out: Activity
SK-MEL-2 [11] = experiment: Growth inhibition of human SK-MEL-2 cells assessed as cell growth at 10^-6 M by sulforhodamine B assay; conditions: read-out: Activity
SW-620 [12] = experiment: Growth inhibition of human SW620 cells assessed as cell growth at 10^-6 M by sulforhodamine B assay; conditions: read-out: Activity
A549 = experiment: Growth inhibition of human A549/ATCC cells assessed as cell growth at 10^-6 M by sulforhodamine B assay; conditions: read-out: Activity
MDA-MB-468 [13] = experiment: Growth inhibition of human MDA-MB-468 cells assessed as cell growth at 10^-7 M by sulforhodamine B assay; conditions: read-out: Activity
BT-549 [14] = experiment: Growth inhibition of human BT549 cells assessed as cell growth at 10^-7 M by sulforhodamine B assay; conditions: read-out: Activity
PC-3 = experiment: Growth inhibition of human PC3 cells assessed as cell growth at 10^-7 M by sulforhodamine B assay; conditions: read-out: Activity
[15] = Growth inhibition of human NCI-ADR-RES cells assessed as cell growth at 10^-7 M by sulforhodamine B assay; conditions: read-out: Activity
MDA-MB-435 [16] = experiment: Growth inhibition of human MDA-MB-435 cells assessed as cell growth at 10^-7 M by sulforhodamine B assay; conditions: read-out: Activity
SK-MEL-2 [17] = experiment: Growth inhibition of human SK-MEL-2 cells assessed as cell growth at 10^-7 M by sulforhodamine B assay; conditions: read-out: Activity
NCI-H322M [18] = experiment: Growth inhibition of human NCI-H322M cells assessed as cell growth at 10^-7 M by sulforhodamine B assay; conditions: read-out: Activity
SR = experiment: Growth inhibition of human SR cells assessed as cell growth at 10^-7 M by sulforhodamine B assay; conditions: read-out: Activity
T47D = experiment: Growth inhibition of human T47D cells assessed as cell growth at 10^-8 M by sulforhodamine B assay; conditions: read-out: Activity
A498 = experiment: Growth inhibition of human A498 cells assessed as cell growth at 10^-8 M by sulforhodamine B assay; conditions: read-out: Activity
[19] = read-out: LC50 (the source's name)
[20] = read-out: pLC50 (the source's name) (converted)

Compound CC1(C)C[C@@H](O)[C@]2(C(=O)O)CC[C@]3(C)C(=CC[C@@H]4[C@@]5(C)C/C(=C\C=C\c6ccccc6)C(=O)C(C)(C)[C@@H]5CC[C@]43C)[C@@H]2C1 has a GI50 (SW-620 [1]; read-out: GI50) of 3.39 µM, a CC50 (SW-620 [1]; [19]) of 78.8 µM and a TGI (SW-620 [1]; read-out: TGI) of 15.4 µM. The GI50 (SW-620 [1]; read-out: pGI50 (converted)) was 3.39 µM, the CC50 (SW-620 [1]; [20]) was 79.4 µM and the TGI (SW-620 [1]; read-out: pTGI (converted)) was 15.5 µM. For the same compound, the GI50 (HT-29; read-out: GI50) was 2.68 µM, the LC50 (50% cell kill) (HT-29; read-out: LC50) was 32.9 µM and the TGI (HT-29; read-out: TGI) was 7.37 µM. It also gave a GI50 (HT-29; read-out: pGI50 (converted)) of 2.69 µM, an LC50 (50% cell kill) (HT-29; read-out: pLC50 (converted)) of 33.1 µM and a TGI (HT-29; read-out: pTGI (converted)) of 7.41 µM. For the same compound, the GI50 (NCI-H322M [2]; read-out: GI50) was 3.45 µM, the LC50 (50% lethal concentration) (NCI-H322M [2]; read-out: LC50) was 48.7 µM and the TGI (NCI-H322M [2]; read-out: TGI) was 13.7 µM. The GI50 (NCI-H322M [2]; read-out: pGI50 (converted)) was 3.47 µM, the LC50 (50% lethal concentration) (NCI-H322M [2]; read-out: pLC50 (converted)) was 49 µM and the TGI (NCI-H322M [2]; read-out: pTGI (converted)) was 13.8 µM. It also gave a growth at 0.01 µM (MDA-MB-435 [3]) of 98%, a growth at 0.01 µM (M14) of 97% and a growth at 0.01 µM (LOX IMVI [4]) of 97%. The growth at 0.01 µM (KM12) was 101%, the growth at 0.01 µM (HOP-92) was 99% and the GI50 (MDA-MB-468 [5]; read-out: GI50) was 3.3 µM. For the same compound, the CC50 (MDA-MB-468 [5]; [19]) was > 100 µM, the TGI (MDA-MB-468 [5]; read-out: TGI) was 12.7 µM and the GI50 (MDA-MB-468 [5]; read-out: pGI50 (converted)) was 3.31 µM. The CC50 (MDA-MB-468 [5]; [20]) was 37.2 µM, the TGI (MDA-MB-468 [5]; read-out: pTGI (converted)) was 12.6 µM and the GI50 (BT-549 [6]; read-out: GI50) was 3.84 µM. The CC50 (BT-549 [6]; [19]) was 55.9 µM, the TGI (BT-549 [6]; read-out: TGI) was 14.8 µM and the GI50 (BT-549 [6]; read-out: pGI50 (converted)) was 3.8 µM. The CC50 (BT-549 [6]; [20]) was 56.2 µM, the TGI (BT-549 [6]; read-out: pTGI (converted)) was 14.8 µM and the GI50 (CAKI-1; read-out: GI50) was 3.57 µM. The CC50 (CAKI-1; [19]) was > 100 µM, the TGI (CAKI-1; read-out: TGI) was 17.7 µM and the GI50 (CAKI-1; read-out: pGI50 (converted)) was 3.55 µM. For the same compound, the CC50 (CAKI-1; [20]) was > 100 µM, the TGI (CAKI-1; read-out: pTGI (converted)) was 17.8 µM and the GI50 (ACHN; read-out: GI50) was 3.65 µM. It also gave a CC50 (ACHN; [19]) of 39.2 µM, a TGI (ACHN; read-out: TGI) of 13.3 µM and a GI50 (ACHN; read-out: pGI50 (converted)) of 3.63 µM. The CC50 (ACHN; [20]) was 38.9 µM, the TGI (ACHN; read-out: pTGI (converted)) was 13.2 µM and the GI50 (786-0; read-out: GI50) was 3.44 µM. It also gave a CC50 (786-0; [19]) of 43.1 µM, a TGI (786-0; read-out: TGI) of 12.8 µM and a GI50 (786-0; read-out: pGI50 (converted)) of 3.47 µM. It also gave a CC50 (786-0; [20]) of 42.7 µM, a TGI (786-0; read-out: pTGI (converted)) of 12.9 µM and a GI50 ([7]; read-out: GI50) of 3.29 µM. It also gave a CC50 [7, 19] of 43.2 µM, a TGI ([7]; read-out: TGI) of 14.1 µM and a GI50 ([7]; read-out: pGI50 (converted)) of 3.31 µM. The CC50 [7, 20] was 43.7 µM, the TGI ([7]; read-out: pTGI (converted)) was 14.1 µM and the GI50 (OVCAR-5; read-out: GI50) was 2.97 µM. For the same compound, the CC50 (OVCAR-5; [19]) was 33.6 µM, the TGI (OVCAR-5; read-out: TGI) was 10.5 µM and the GI50 (OVCAR-5; read-out: pGI50 (converted)) was 2.95 µM. The CC50 (OVCAR-5; [20]) was 33.9 µM, the TGI (OVCAR-5; read-out: pTGI (converted)) was 10.5 µM and the growth at 100 µM (UO-31) was -82%. For the same compound, the growth at 100 µM (OVCAR-8) was -67%, the growth at 100 µM (Malme-3M) was -60% and the growth at 100 µM (LOX IMVI [8]) was -90%. The growth at 100 µM (SF-539) was -90%, the growth at 100 µM (SW-620 [9]) was -57% and the growth at 100 µM (COLO 205) was -61%. It also gave a growth at 1 µM [10] of 87%, a growth at 1 µM (OVCAR-3) of 92% and a growth at 1 µM (SK-MEL-28) of 97%. It also gave a growth at 1 µM (SK-MEL-2 [11]) of 100%, a growth at 1 µM (SW-620 [12]) of 91% and a growth at 1 µM (A549) of 88%. The growth at 0.1 µM (MDA-MB-468 [13]) was 96%, the growth at 0.1 µM (BT-549 [14]) was 103% and the growth at 0.1 µM (PC-3) was 96%. The growth at 0.1 µM [15] was 108%, the growth at 0.1 µM (MDA-MB-435 [16]) was 96% and the growth at 0.1 µM (SK-MEL-2 [17]) was 91%. It also gave a growth at 0.1 µM (NCI-H322M [18]) of 96%, a growth at 0.1 µM (SR) of 100% and a growth at 0.01 µM (T47D) of 101%. It also gave a growth at 0.01 µM (A498) of 82%.
